The source of these data is the NIST ThermoML archive (doi:10.1016/j.jct.2007.09.008).

For this series the following is noted: Liquid, Closed cell (Static) method.

Molecules are shown by their SMILES. ± gives the expanded uncertainty stated by the source.

What is called vapor or sublimation pressure is the equilibrium pressure above the liquid or solid.

As to `CCC1CCC(=O)O1` (stereo unspecified) [2(3H)-furanone, 5-ethyldihydro-], the “vapor or sublimation pressure” value (283.1 K) is reported as 0.075 ± 0.008 kPa; the “vapor or sublimation pressure” value (293.1 K) is reported as 0.128 ± 0.008 kPa; the “vapor or sublimation pressure” value (303.1 K) turned out to be 0.221 ± 0.008 kPa; the “vapor or sublimation pressure” value (312.9 K) was determined as 0.356 ± 0.016 kPa; the “vapor or sublimation pressure” value (323.3 K) stood at 0.564 ± 0.019 kPa; the “vapor or sublimation pressure” value (333.3 K) was determined as 0.862 ± 0.027 kPa. The “vapor or sublimation pressure” value (343.1 K) came out at 1.367 ± 0.1 kPa.

`CC1CCCC(=O)O1` (stereo unspecified) [2H-pyran-2-one, tetrahydro-6-methyl-]: the “vapor or sublimation pressure” value by setting is: (283.1 K) 0.005 ± 0.002 kPa; (293.2 K) 0.011 ± 0.006 kPa; (303.1 K) 0.025 ± 0.016 kPa; (313.1 K) 0.054 ± 0.004 kPa; (323.2 K) 0.103 ± 0.006 kPa; (333.1 K) 0.191 ± 0.01 kPa. Further, the “vapor or sublimation pressure” value (343.1 K) is listed as 0.354 ± 0.02 kPa.

`O=C1CCCCCO1` [6-hexanolactone]: the “vapor or sublimation pressure” value is, setting by setting: (283.2 K) 0.045 ± 0.002 kPa; (292.9 K) 0.079 ± 0.003 kPa; (302.9 K) 0.131 ± 0.006 kPa; (313.1 K) 0.213 ± 0.008 kPa; (323.1 K) 0.339 ± 0.012 kPa; (333.2 K) 0.518 ± 0.021 kPa. Moreover, the “vapor or sublimation pressure” value (343.2 K) amounted to 0.768 ± 0.031 kPa.
